The nature of data set [1]: Half-life of native and glycosylated GLP-1 isoforms in rats. To be noted: anesthetized male Wistar rats, i.v. bolus 20 nmol/kg; for half-life t1/2 in circulation: n = 8 per group, total GLP-1 in plasma (assay against amidated C-terminus: intact 7–36 amide and metabolites), one-phase decay, linear model on ln-transformed data; for detectability in circulation after injection (in words): total GLP-1 assay, plasma sampled up to 60 min. As to the method: Male Wistar rats (≈250 g) were obtained from Janvier (Saint Berthevin Cedex, France) and housed in pairs under standard conditions with ad libitum access to chow and water. Rats were acclimatized for at least 1 week before the study. Studies were carried out on two occasions, matching on each occasion the number of rats in each group, while at the same time avoiding rats from the same cage receiving the same test solution. […] On the day of study, non-fasted rats were anesthetized by a subcutaneous injection with Hypnorm/Midazolam (0.3 ml per 100 g body weight) and placed on a heated operating table (37 °C). The abdominal cavity was opened by a midline incision and a plastic catheter was inserted in the portal vein. Blood was collected (∼300 µl per timepoint) through the catheter into ice cold EDTA-coated tubes that were immediately placed one ice. Samples were collected at timepoint −5, 0, 1, 2, 5, 10, 15, 25, 45, and 60 min. In between samples, ∼200 µL PBS were injected to flush the catheter and replace lost fluid. […] At end of study, rats were sacrificed by diaphragm perforation.
Only data points represented by n > 4 were included in the analysis. To test the difference in rate constant (k), a multiple linear model (lm) was fitted to the pooled data with glycoform set as interaction (lm, Concentration ∼ Timepoint * Glycoform).

The conditions of data set [2]: intact GLP-1 (7–36 amide); cited from earlier work.
The target in data set [3] is T1, neprilysin (NEP) (Homo sapiens, UniProt P08473).
T1 construct: purchased R&D Systems
The data set is described as follows: In vitro degradation by neprilysin, MALDI-TOF timecourse assay. It counts as in vitro ADME. The conditions noted are these: sialylated ST O-glycan structure, 15 µM peptide, 37 °C, pH 9.0, NEP 20 ng/μL (PYY), 150 pg/μL (GAL).
Experimental: Recombinant protease assays were performed in a MALDI-TOF timecourse assay. […] The amount of enzyme used was optimized to fully digest the non-glycosylated peptide hormone of interest within 1 h of incubation.
MALDI-TOF-MS was performed in linear positive mode on a Bruker Autoflex instrument (Bruker Daltonik GmbH, Bremen, Germany) by mixing the quenched aliquots with a saturated solution of α-Cyano-4-hydroxycinnamic acid in ACN/H2O/TFA (70:30:0.1) at a 1:1 ratio on a target steel plate.

The next data set has as its target T2, VIP receptor 2 (VPAC2) (Homo sapiens, UniProt P41587).
T2 sequence (P41587 24-438): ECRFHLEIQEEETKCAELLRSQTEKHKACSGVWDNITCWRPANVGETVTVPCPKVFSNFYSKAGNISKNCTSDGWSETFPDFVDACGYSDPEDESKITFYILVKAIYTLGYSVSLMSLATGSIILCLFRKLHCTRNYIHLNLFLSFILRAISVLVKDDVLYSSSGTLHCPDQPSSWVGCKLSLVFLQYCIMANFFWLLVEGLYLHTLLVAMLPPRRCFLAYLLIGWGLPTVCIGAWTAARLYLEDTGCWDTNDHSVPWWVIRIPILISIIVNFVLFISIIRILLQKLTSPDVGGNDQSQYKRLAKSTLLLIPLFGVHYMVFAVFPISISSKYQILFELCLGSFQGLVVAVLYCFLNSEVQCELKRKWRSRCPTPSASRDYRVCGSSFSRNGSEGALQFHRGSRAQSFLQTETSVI
The data set is described as follows: cAMP assay, COS-7 cells transiently expressing VPAC2. In kind it is cell-based. The conditions noted are these: for % receptor activation at 1µM agonist: VPAC2 + VIP, Suppl. fig 5a source data; for EC50: log(EC50) VPAC 2 + VIP, log10 of EC50, COS-7 cells, cAMP, Hill = 1, top constrained to 100%.

The target of another data set is T3, VIP receptor 1 (VPAC1) (Homo sapiens, UniProt P32241).
T3 sequence (P32241 31-457): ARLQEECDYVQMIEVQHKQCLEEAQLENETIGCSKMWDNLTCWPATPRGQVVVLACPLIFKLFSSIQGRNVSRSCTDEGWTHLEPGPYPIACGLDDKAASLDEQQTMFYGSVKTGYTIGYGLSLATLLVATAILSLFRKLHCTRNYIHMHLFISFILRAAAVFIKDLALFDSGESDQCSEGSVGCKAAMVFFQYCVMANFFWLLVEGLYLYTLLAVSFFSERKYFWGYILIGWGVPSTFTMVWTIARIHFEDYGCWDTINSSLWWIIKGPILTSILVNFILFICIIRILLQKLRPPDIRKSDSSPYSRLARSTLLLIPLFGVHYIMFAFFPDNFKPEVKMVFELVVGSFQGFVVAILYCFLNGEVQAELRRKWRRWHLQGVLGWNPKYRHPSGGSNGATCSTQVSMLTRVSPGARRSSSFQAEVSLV
The data set is described as follows: cAMP assay, COS-7 cells transiently expressing VPAC1. In kind it is cell-based. To be noted: for EC50: log(EC50) VPAC1 + VIP, log10 of EC50, COS-7 cells, cAMP, Hill = 1, top constrained to 100%. (Cyclic AMP is a second messenger, typically raised through Gs and lowered through Gi signalling.)

Data set [4] has as its system neprilysin (NEP). The data set is described as follows: NEP (R&D Systems) in 50 mM Tris, 0.05% Brij-35, pH 9.0. To be noted: 37 °C, up to 24 h.
Data set [5] has as its system dipeptidyl peptidase IV (DPP-IV). Kind of data set: DPP-IV (R&D Systems) in 50 mM Tris, pH 8.0. The conditions noted are these: 37 °C, up to 24 h.
The conditions of data set [6]: cited from earlier work.
Setting [7] is: independent experiment 1, duplicate determinations.
Where [8] appears, read: independent experiment 2, duplicate determinations.
Setting [9] is: independent experiment 3, duplicate determinations.

Usually EC50 stands for the midpoint of the concentration-response curve.

T1 sequence (P08473 whole entry, species assumed): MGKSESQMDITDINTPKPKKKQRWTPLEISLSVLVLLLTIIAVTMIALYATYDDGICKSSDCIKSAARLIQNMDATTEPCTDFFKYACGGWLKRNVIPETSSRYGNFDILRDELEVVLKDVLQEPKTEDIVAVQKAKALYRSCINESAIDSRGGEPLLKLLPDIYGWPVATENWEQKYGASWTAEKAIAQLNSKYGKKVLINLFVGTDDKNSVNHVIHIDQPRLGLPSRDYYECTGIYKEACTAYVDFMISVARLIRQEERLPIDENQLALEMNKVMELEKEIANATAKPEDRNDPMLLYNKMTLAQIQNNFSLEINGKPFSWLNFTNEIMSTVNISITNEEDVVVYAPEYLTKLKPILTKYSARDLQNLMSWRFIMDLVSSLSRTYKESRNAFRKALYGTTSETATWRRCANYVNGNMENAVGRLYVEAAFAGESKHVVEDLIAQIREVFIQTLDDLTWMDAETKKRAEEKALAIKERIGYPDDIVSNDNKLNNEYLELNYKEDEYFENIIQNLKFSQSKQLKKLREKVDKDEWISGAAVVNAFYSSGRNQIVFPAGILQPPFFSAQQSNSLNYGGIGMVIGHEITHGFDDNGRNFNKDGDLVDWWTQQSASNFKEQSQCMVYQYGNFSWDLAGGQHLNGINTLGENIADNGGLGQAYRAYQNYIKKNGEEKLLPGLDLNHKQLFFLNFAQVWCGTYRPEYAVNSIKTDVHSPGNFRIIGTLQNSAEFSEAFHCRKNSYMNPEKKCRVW

With `CC[C@H](C)[C@H](NC(=O)[C@H](Cc1ccccc1)NC(=O)[C@H](CCC(=O)O)NC(=O)[C@H](CCCCN)NC(=O)[C@H](C)NC(=O)[C@H](C)NC(=O)[C@H](CCC(N)=O)NC(=O)CNC(=O)[C@H](CCC(=O)O)NC(=O)[C@H](CC(C)C)NC(=O)[C@H](Cc1ccc(O)cc1)NC(=O)[C@H](CO)NC(=O)[C@H](CO)NC(=O)[C@@H](NC(=O)[C@H](CC(=O)O)NC(=O)[C@H](CO)NC(=O)[C@@H](NC(=O)[C@H](Cc1ccccc1)NC(=O)[C@@H](NC(=O)CNC(=O)[C@H](CCC(=O)O)NC(=O)[C@H](C)NC(=O)[C@@H](N)Cc1c[nH]cn1)[C@@H](C)O)[C@@H](C)O[C@H]1O[C@H](CO)[C@H](O)[C@H](O[C@@H]2O[C@H](CO)[C@H](O)[C@H](O[C@]3(C(=O)O)C[C@H](O)[C@@H](NC(C)=O)[C@H]([C@H](O)[C@H](O)CO)O3)[C@H]2O)[C@H]1NC(C)=O)C(C)C)C(=O)N[C@@H](C)C(=O)N[C@@H](Cc1c[nH]c2ccccc12)C(=O)N[C@@H](CC(C)C)C(=O)N[C@H](C(=O)N[C@@H](CCCCN)C(=O)NCC(=O)N[C@@H](CCCNC(=N)N)C(N)=O)C(C)C` [GLP-1 ST], in data set [1], the “half-life t1/2 in circulation” value was 22.7 min and the “detectability in circulation after injection (in words)” value is “readily detectable in circulation even after 60 min”.

With `CC[C@H](C)[C@H](NC(=O)[C@H](Cc1ccccc1)NC(=O)[C@H](CCC(=O)O)NC(=O)[C@H](CCCCN)NC(=O)[C@H](C)NC(=O)[C@H](C)NC(=O)[C@H](CCC(N)=O)NC(=O)CNC(=O)[C@H](CCC(=O)O)NC(=O)[C@H](CC(C)C)NC(=O)[C@H](Cc1ccc(O)cc1)NC(=O)[C@H](CO)NC(=O)[C@H](CO)NC(=O)[C@@H](NC(=O)[C@H](CC(=O)O)NC(=O)[C@H](CO)NC(=O)[C@@H](NC(=O)[C@H](Cc1ccccc1)NC(=O)[C@@H](NC(=O)CNC(=O)[C@H](CCC(=O)O)NC(=O)[C@H](C)NC(=O)[C@@H](N)Cc1c[nH]cn1)[C@@H](C)O)[C@@H](C)O)C(C)C)C(=O)N[C@@H](C)C(=O)N[C@@H](Cc1c[nH]c2ccccc12)C(=O)N[C@@H](CC(C)C)C(=O)N[C@H](C(=O)N[C@@H](CCCCN)C(=O)NCC(=O)N[C@@H](CCCNC(=N)N)C(N)=O)C(C)C` [GLP-1, glucagon-like peptide 1, reference compound], in data set [2], the “half-life in circulation, literature” value was ~ 2 min. In addition, in data set [1], the “half-life t1/2 in circulation” value amounted to 2.7 min and the “detectability in circulation after injection (in words)” value was “undetectable after the 15 min timepoint”.

With `CC(=O)N[C@H]1[C@@H](OC[C@H](NC(=O)[C@H](Cc2ccccc2)NC(=O)[C@H](CO)NC(=O)[C@H](CCCNC(=N)N)NC(=O)[C@H](Cc2c[nH]cn2)NC(=O)[C@H](CC(N)=O)NC(=O)CNC(=O)[C@@H](NC(=O)[C@H](C)NC(=O)[C@H](Cc2c[nH]cn2)NC(=O)[C@@H]2CCCN2C(=O)CNC(=O)[C@H](CC(C)C)NC(=O)[C@H](CC(C)C)NC(=O)[C@H](Cc2ccc(O)cc2)NC(=O)CNC(=O)[C@H](C)NC(=O)[C@H](CO)NC(=O)[C@H](CC(N)=O)NC(=O)[C@H](CC(C)C)NC(=O)[C@@H](NC(=O)[C@H](Cc2c[nH]c3ccccc23)NC(=O)CN)[C@@H](C)O)C(C)C)C(=O)N[C@@H](CC(=O)O)C(=O)N[C@@H](CCCCN)C(=O)N[C@@H](CC(N)=O)C(=O)NCC(=O)N[C@@H](CC(C)C)C(=O)N[C@H](C(=O)N[C@@H](CO)C(=O)O)[C@@H](C)O)O[C@H](CO)[C@H](O)[C@@H]1O[C@@H]1O[C@H](CO)[C@H](O)[C@H](O[C@]2(C(=O)O)C[C@H](O)[C@@H](NC(C)=O)[C@H]([C@H](O)[C@H](O)CO)O2)[C@H]1O` [Galanin ST], the “full-length peptide after incubation with NEP (in words)” value on neprilysin (NEP) [3] is on record as “readily detectable after 24 h”.

Regarding `CC[C@H](C)[C@H](NC(=O)[C@H](CO)NC(=O)[C@H](CC(N)=O)NC(=O)[C@H](CC(C)C)NC(=O)[C@H](Cc1ccc(O)cc1)NC(=O)[C@H](CCCCN)NC(=O)[C@H](CCCCN)NC(=O)[C@@H](NC(=O)[C@H](C)NC(=O)[C@H](CCSC)NC(=O)[C@H](CCC(N)=O)NC(=O)[C@H](CCCCN)NC(=O)[C@H](CCCNC(=N)N)NC(=O)[C@H](CC(C)C)NC(=O)[C@H](CCCNC(=N)N)NC(=O)[C@@H](NC(=O)[C@H](Cc1ccc(O)cc1)NC(=O)[C@H](CC(N)=O)NC(=O)[C@H](CC(=O)O)NC(=O)[C@@H](NC(=O)[C@H](Cc1ccccc1)NC(=O)[C@@H](NC(=O)[C@H](C)NC(=O)[C@H](CC(=O)O)NC(=O)[C@H](CO)NC(=O)[C@@H](N)Cc1c[nH]cn1)C(C)C)[C@@H](C)O[C@H]1O[C@H](CO)[C@H](O)[C@H](O)[C@H]1NC(C)=O)[C@@H](C)O)C(C)C)C(=O)N[C@@H](CC(C)C)C(=O)N[C@@H](CC(N)=O)C(N)=O` [VIP Tn], the “% receptor activation at 1µM agonist” value at VIP receptor 2 (VPAC2) (replicate 1) stood at 70.4%; at VIP receptor 2 (VPAC2) (replicate 2), 67.4%; on VIP receptor 2 (VPAC2) (replicate 3) it was 67.0%; at VIP receptor 2 (VPAC2) (replicate 4), 57.3%; on VIP receptor 2 (VPAC2) (replicate 5) it was 63.7%; at VIP receptor 2 (VPAC2) (replicate 6), 60.1%. At VIP receptor 1 (VPAC1) (VPAC1 + VIP, 1µM agonist, Suppl. fig 5a source data, replicate 4), the “% receptor activation at 1µM agonist” value is on record as 82.0%. In addition, the half-maximal effective concentration (EC50) on VIP receptor 2 (VPAC2) (setting [7]) was 421 nM; on VIP receptor 2 (VPAC2) (setting [8]), 656 nM; on VIP receptor 2 (VPAC2) (setting [9]), 577 nM; on VIP receptor 1 (VPAC1) (setting [7]), 42.6 nM; on VIP receptor 1 (VPAC1) (setting [8]) it was 207 nM; at VIP receptor 1 (VPAC1) (setting [9]), 101 nM. Further, the “Efficacy raw data for Glucagon-receptors, VPAC2 + VIP” value at VIP receptor 2 (VPAC2) (replicate 1) amounted to 74.75; at VIP receptor 2 (VPAC2) (replicate 2), 186; at VIP receptor 2 (VPAC2) (replicate 3), 78.02. Moreover, the entries for the “Efficacy raw data for Glucagon-receptors, VPAC1 + VIP” value on VIP receptor 1 (VPAC1) (replicate 1), at VIP receptor 1 (VPAC1) (replicate 2) and on VIP receptor 1 (VPAC1) (replicate 3) were 102, 111.1 and 105.8, respectively.

For “GWTLNSAGYLLGPHAVGNHRSFSDKNGLTS [Galanin T]”, the not cleaved entry with neprilysin (NEP) [4] is reported as “−: not susceptible to degradation”.

For the compound HAEGTFTSDVSSYLEGQAAKEFIAWLVKGR, the not cleaved entry (in data set [5]; in the data set on neprilysin (NEP) [4]) was “−: not susceptible to degradation” in each case. Moreover, the fragment found in data set [6] is on record as 9–36 amide, major.

On to HSDAVFTDNYTRLRKQMAVKKYLNSILN, for which the not cleaved result in the data set on neprilysin (NEP) [4] is “−: not susceptible to degradation”.

Regarding HSDGTFTSELSRLREGARLQRLLQGLV, in the data set on neprilysin (NEP) [4], the not cleaved result is on record as “−: not susceptible to degradation”.

The values above are taken from PMC7441158 (Nature Communications, 2020).
